Data published in patent US8546442B2, “Pyrazolopiperidine compounds as CCR1 receptor antagonists” (Boehringer Ingelheim International GmbH, priority 2010, dated 2013).

Assays:
CCR1 [1] = biological target: T1, CCR1 (Homo sapiens, UniProt P32246); assay: calcium flux in CCR1 transfected cells, Method A (Fluo-4 NW, FLIPR TETRA); type: cell-based; conditions: cells stably expressing recombinant CCR1 and G-alpha-16, MIP-1 alpha at EC80
T1 sequence (P32246 1-355): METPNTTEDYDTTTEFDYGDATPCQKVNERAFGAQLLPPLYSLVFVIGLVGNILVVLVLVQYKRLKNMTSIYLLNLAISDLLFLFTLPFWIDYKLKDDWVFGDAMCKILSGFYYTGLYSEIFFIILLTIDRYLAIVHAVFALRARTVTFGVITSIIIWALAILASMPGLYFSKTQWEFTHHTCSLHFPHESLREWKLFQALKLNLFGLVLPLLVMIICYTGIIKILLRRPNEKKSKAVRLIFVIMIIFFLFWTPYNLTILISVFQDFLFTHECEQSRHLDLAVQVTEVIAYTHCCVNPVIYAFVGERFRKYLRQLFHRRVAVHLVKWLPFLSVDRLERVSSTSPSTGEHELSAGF
Method: (§1) Compounds are assessed for the ability to block the interaction of CCR1 and MIP-1α in a functional cellular assay measuring calcium flux in CCR1 transfected cells.
Method A: Non-adherent cells purchased from Chemicon Corporation (HTS005C), stably expressing recombinant CCR1 and G-alpha-16 are grown in RPMI 1640 medium (Mediatech 10-080-CM) supplemented with 10% heat-inactivated FBS, 0.4 mg/mL Geneticin and penicillin/streptomycin. On the day of the assay, the cells are transferred to a beaker and dye-loaded in bulk using a Fluo-4 NW Calcium Assay Kit with probenecid (Invitrogen F36205) at 0.8E6 cells/mL for 1 hour at room temperature. After 1 hour, they are seeded in a 384-well tissue culture-treated plate at a density of 20,000 cells/well. Appropriately diluted test compound is added to the well to achieve a top concentration of 3,000 nM (diluted 4-fold with 10 doses total). The final concentration of DMSO is 1%. The buffer is HBSS (Invitrogen 14025) with 20 mM HEPES at pH 7.4. The cells are allowed to incubate 1 hour in the dark at room temperature. The plates are transferred to the FLIPR TETRA where MIP-1 alpha in 1% BSA is added at the EC80 final concentration. Wells+/−MIP-1 alpha containing diluted DMSO instead of compound serve as the controls. Intracellular calcium flux is recorded on the FLIPR TETRA, using excitation at 470/495 nm and emission at 515/575 nm. Data are analyzed using Activity Base software.

CCR1 [2] = biological target: T1, CCR1; assay: calcium flux in CCR1 transfected cells, Method B (Calcium 4 dye, HAMAMATSU FDSS6000); type: cell-based; conditions: cells stably expressing recombinant CCR1 and G-alpha-16, MIP-1alpha at EC80
Method: as §1
Method B: Non-adherent cells purchased from Chemicon Corporation (HTS005C), stably expressing recombinant CCR1 and G-alpha-16 are grown in RPMI 1640 medium (Mediatech 10-080-CM) supplemented with 10% FBS, 0.4 mg/mL Geneticin and penicillin/streptomycin. On the day of the assay, the cells are loaded with Calcium 4 dye (Molecular Devices R7448) with Probenecid (Invitrogen P346400) at 8E5 cells/mL for 1 hour at room temperature. After 1 hour, they are seeded in a 384-well tissue culture-treated plate at a density of 20,000 cells/well. Appropriately diluted test compound is added to the well to achieve a top concentration of 3,000 nM (diluted 4-fold with 10 doses total). The final concentration of DMSO is 1%. The buffer is HBSS (Invitrogen 14025) with 20 mM HEPES at pH 7.4. The cells incubate 30 minutes at 37 C and then 30 minutes at room temperature. The plates are transferred to the HAMAMATSU FDSS6000 where MIP-1alpha in 1% BSA is added at the EC80 final concentration. All plates must be read within 4 hours of the start of dye-loading. Wells+/−MIP-1alpha containing diluted DMSO instead of compound serve as the controls. Data are analyzed using Activity Base software.

Row | Compound | IC50 (CCR1 [1]) [nM] | IC50 (CCR1 [2]) [nM]
1 | CCC[C@H](NC(=O)N1c2cnn(-c3ccc(F)cc3)c2CCC1C(F)(F)F)c1ccnc(S(C)(=O)=O)c1 (single isomer, unassigned) [Example 56] | 10 | 6
2 | CNS(=O)(=O)c1ccc(CNC(=O)N2CCCc3c2cnn3-c2ccc(F)cc2)cc1 [Example 22] | 22 | 5
3 | CS(=O)(=O)c1cccc(CNC(=O)N2CCCc3c2cnn3-c2ccc(F)cc2)c1 [Example 23] | 31 | 22
4 | CCCC(NC(=O)N1CCCc2c1cnn2-c1ccc(F)cc1)c1cncc(S(C)(=O)=O)c1 (centres unmarked) [Example 24] | 0.6 | 
5 | CS(=O)(=O)c1ccc(CNC(=O)N2CCCc3c2cnn3-c2ccc(F)cc2)cc1 [Example 25] | 51 | 65
6 | COCCNS(=O)(=O)c1ccc(CNC(=O)N2CCCc3c2cnn3-c2ccc(F)cc2)cc1 [Example 26] | 6 | 4
7 | O=C(NCc1ccc(S(=O)(=O)NC2CCOCC2)cc1)N1CCCc2c1cnn2-c1ccc(F)cc1 [Example 28, 1-(4-Fluorophenyl)-1,5,6,7-tetrahydro-pyrazolo[4,3-b]pyridine-4-carboxylic acid 4-(tetrahydro-pyran-4-ylsulfamoyl)-benzylamide] | 40 | 10
8 | C[C@H](CO)NS(=O)(=O)c1ccc(CNC(=O)N2CCCc3c2cnn3-c2ccc(F)cc2)cc1 [Example 34] | 20 | 
9 | C[C@@H](CO)NS(=O)(=O)c1ccc(CNC(=O)N2CCCc3c2cnn3-c2ccc(F)cc2)cc1 [Example 35] | 4 | 
10 | O=C(NCc1cc(Cl)cc(Cl)c1)N1CCCc2c1cnn2-c1ccc(F)cc1 [Example 40] | 33 | 3
11 | C[C@H](NC(=O)N1CCCc2c1cnn2-c1ccc(F)cc1)c1cncc(Br)c1 [Example 41] | 6 | 2
12 | CCC[C@H](NC(=O)N1CCCc2c1cnn2-c1ccc(F)cc1)c1cncc(S(C)(=O)=O)c1 [Example 47] | 0.4 | 0.2
13 | CCC[C@H](NC(=O)N1CCCc2c1cnn2-c1ccc(F)cc1)c1ccc(S(C)(=O)=O)nc1 [Example 50] | 4 | 0.9
14 | CC[C@H](NC(=O)N1CCCc2c1cnn2-c1ccc(F)cc1)c1ccc(S(C)(=O)=O)nc1 [Example 51] | 14 | 3
15 | CC[C@H](NC(=O)N1c2cnn(-c3ccc(F)cc3)c2CCC1C)c1ccnc(S(C)(=O)=O)c1 (some centres unmarked) [Example 55] | 13 | 12
16 | CC[C@H](NC(=O)N1CCCc2c1cnn2-c1ccc(F)cc1)c1ccnc(S(C)(=O)=O)c1 [Example 59] | 0.4 | 0.6
17 | CCC[C@H](NC(=O)N1CCCc2c1cnn2-c1ccc(F)cc1)c1ccnc(S(C)(=O)=O)c1 [Example 60] | 0.5 | 0.3
18 | CCC[C@H](NC(=O)N1c2cnn(-c3ccc(F)cc3)c2CCC1C(F)(F)F)c1cncc(S(C)(=O)=O)c1 (some centres unmarked) [Example 61] | 12 | 8
19 | CCC[C@H](NC(=O)N1CCCc2c1cnn2-c1ccc(F)cc1F)c1ccnc(S(C)(=O)=O)c1 [Example 62] | 1 | 1
20 | CCC[C@H](NC(=O)N1CCCc2c1c(C)nn2-c1ccc(F)cc1)c1cncc(S(C)(=O)=O)c1 [Example 99] |  | 1500
21 | CCC[C@H](NC(=O)N1CC(C)Cc2c1cnn2-c1ccc(F)cc1)c1ccnc(S(C)(=O)=O)c1 (some centres unmarked) [Example 102] |  | 0.6
22 | CCC[C@H](NC(=O)N1c2cnn(-c3ccc(F)cc3)c2CCC1C(F)(F)F)c1ccc(S(C)(=O)=O)c(OC)c1 (some centres unmarked) [Example 105] |  | 5
23 | CCC[C@H](NC(=O)N1c2cnn(-c3ccc(F)cc3)c2CCC1C(F)(F)F)c1ccc(S(C)(=O)=O)c(O)c1 (some centres unmarked) [Example 106] |  | 11
24 | CCC[C@H](NC(=O)N1c2cnn(-c3ccc(F)cc3)c2CCC1C)c1cccc(S(C)(=O)=O)n1 (some centres unmarked) [Example 107] |  | 8
25 | CC[C@H](NC(=O)N1c2cnn(-c3ccc(F)cc3)c2CC1C)c1cccc(S(C)(=O)=O)c1 (some centres unmarked) [Example 109] |  | 11
26 | CCC[C@H](NC(=O)N1CC(C(=O)NC)Cc2c1cnn2-c1ccc(F)cc1)c1ccnc(S(C)(=O)=O)c1 (some centres unmarked) [Example 116] |  | 1

Next, values leading:

Row | IC50 (CCR1 [1]) [nM] | IC50 (CCR1 [2]) [nM] | Compound
27 | 3 | 1 | CNS(=O)(=O)c1ccc(CNC(=O)N2CCCc3c2cnn3-c2ccc(F)cc2)c(Cl)c1 [Example 31]
28 | 19 |  | CN(C)S(=O)(=O)c1cccc(CNC(=O)N2CCCc3c2cnn3-c2ccc(F)cc2)c1 [Example 33]
29 | 3 | 3 | CCCC(NC(=O)N1CCCc2c1cnn2-c1ccc(F)cc1)c1ccc(S(C)(=O)=O)nc1 (centres unmarked) [Example 36]
30 | 11 | 2 | CNS(=O)(=O)c1ccc(CNC(=O)N2CCCc3c2cnn3-c2ccc(F)cc2)c(F)c1 [Example 38]
31 | 0.2 | 0.4 | CCCC(NC(=O)N1CCCc2c1cnn2-c1ccc(F)cc1)c1cncc(Br)c1 (centres unmarked) [Example 39]
32 | 0.4 | 0.2 | CC[C@H](NC(=O)N1CCCc2c1cnn2-c1ccc(F)cc1)c1cncc(Br)c1 [Example 42]
33 | 1 | 0.6 | CC[C@H](NC(=O)N1CCCc2c1cnn2-c1ccc(F)cc1)c1cncc(S(C)(=O)=O)c1 [Example 45]
34 | 0.2 | 0.2 | CCC[C@H](NC(=O)N1CCCc2c1cnn2-c1ccc(F)cc1)c1cncc(Br)c1 [Example 46]
35 | 19 | 2 | CC[C@H](NC(=O)N1CCCc2c1cnn2-c1ccc(F)cc1)c1ccc(Br)nc1 [Example 48, 1-(4-Fluorophenyl)-1,5,6,7-tetrahydro-pyrazolo[4,3-b]pyridine-4-carboxylic acid [(S)-1-(6-bromo-pyridin-3-yl)-propyl]-amide]
36 | 12 | 2 | CCC[C@H](NC(=O)N1CCCc2c1cnn2-c1ccc(F)cc1)c1ccc(Br)nc1 [Example 49]
37 |  | 0.7 | CCC[C@H](NC(=O)N1CC(C)(C)Cc2c1cnn2-c1ccc(F)cc1)c1ccnc(S(C)(=O)=O)c1 [Example 103]
38 |  | 57 | CCC[C@H](NC(=O)N1c2cnn(-c3ccc(F)cc3)c2CCC1C(F)(F)F)c1ccc(Br)c(OC)c1 (some centres unmarked) [Example 104]
39 |  | 9 | CCC[C@H](NC(=O)N1c2cnn(-c3ccc(F)cc3)c2CC1C)c1ccnc(S(C)(=O)=O)c1 (stereo partly drawn) [Example 108, 1-(4-Fluorophenyl)-5-methyl-5,6-dihydro-1H-pyrrolo[3,2-c]pyrazole-4-carboxylic acid [(S)-1-(2-methanesulfonyl-pyridin-4-yl)-butyl]-amide]
40 |  | 22 | CCC[C@H](NC(=O)N1c2cnn(-c3ccc(F)cc3)c2CC[C@@H]1C)c1cncc(S(C)(=O)=O)c1 [Example 111]
41 |  | 0.7 | CCC[C@H](NC(=O)N1CC(C(=O)OCC)Cc2c1cnn2-c1ccc(F)cc1)c1ccnc(S(C)(=O)=O)c1 (stereo partly drawn) [Example 114, 1-(4-Fluorophenyl)-4-[(S)-1-(2-methanesulfonyl-pyridin-4-yl)-butylcarbamoyl]-4,5,6,7-tetrahydro-1H-pyrazolo[4,3-b]pyridine-6-carboxylic acid ethyl ester]
42 |  | 23 | CCC[C@H](NC(=O)N1CC(C(=O)O)Cc2c1cnn2-c1ccc(F)cc1)c1ccnc(S(C)(=O)=O)c1 (stereo partly drawn) [Example 115, 1-(4-Fluorophenyl)-4-[(S)-1-(2-methanesulfonyl-pyridin-4-yl)-butylcarbamoyl]-4,5,6,7-tetrahydro-1H-pyrazolo[4,3-b]pyridine-6-carboxylic acid]
43 |  | 1 | CCC[C@H](NC(=O)N1CC(C(=O)NCCO)Cc2c1cnn2-c1ccc(F)cc1)c1ccnc(S(C)(=O)=O)c1 (some centres unmarked) [Example 117]
